Assay: in vitro
Details: human, hela cells, % viability

Row | SMILES | viability at 28.5 h, 10 µM [%] | viability at 28.5 h, 10 µM (bulk resorufin, single well) [%]
1 | OC1CCN(CC(O)Cn2c3ccccc3c3ccccc32)CC1 (stereo not shown) [CBK305784] | 100 | –
2 | O=C(O)C1C2C=CC(C2)C1C(=O)N1CCN(C(c2ccccc2)c2ccccc2)CC1 (stereo not shown) [CBK262659] | 95.2 | –
3 | CN(CC(N)=O)C(=O)CCn1c(=O)oc2cc(Cl)ccc21 [CBK305757] | 94.9 | –
4 | CC(C)c1ccc(OCCN2CCNCC2)cc1 [CBK266024C] | 96 | –
5 | Cn1c(=O)[nH]c(=O)c2c(-c3ccccc3)ccnc21 [CBK288136] | 72 | –
6 | Cc1cccnc1C(NC(=O)C1CCN(Cc2cccn2C)CC1)c1ccc(Cl)cc1 (stereo not shown) [CBK148174] | 110 | –
7 | O=C(O)c1ccc(/C=N/c2ccc(S(=O)(=O)c3ccc(/N=C/c4ccc(C(=O)O)cc4)cc3)cc2)cc1 [CBK262038] | 92.4 | –
8 | COc1ccc(C(NC(=O)c2cc3ccccc3[nH]2)C2CC2)cc1 (stereo not shown) [CBK297896] | 97.9 | –
9 | O=C(CS(=O)(=O)c1ccccc1)Nc1cnc(-c2ccc(F)cc2)c(-c2ccoc2)n1 [CBK037168] | 107 | –
10 | O=C1N[C@@H]2CCN(C(=O)C3CC3)[C@@H]2C(=O)N1c1ccc(F)cc1 [CBK289324] | 99.6 | –
11 | CCN(CC)C(=O)c1sccc1NS(=O)(=O)c1cc(Br)c(Cl)s1 [CBK004599] | 98.3 | –
12 | CCC(CN1CCOCC1)NC(=O)Cc1ccc2c(c1)CCC2 (stereo not shown) [CBK282810] | 114 | –
13 | CC1(OCc2ccccc2)SC(NC2CCCCCC2)=NC1=O (stereo not shown) [CBK105606] | 82.8 | –
14 | O=C(CCN1C(=O)/C(=C\C=C\c2ccccc2)SC1=S)Nc1cc(Cl)ccc1O [CBK264792] | 96.2 | –
15 | CNC(=O)CSc1nnc(COc2cccc3ccccc23)n1-c1ccccc1 [CBK266043] | 102 | –
16 | CCOC(=O)c1sc(NS(=O)(=O)c2cccc3cccnc23)nc1C [CBK047443] | 91.6 | –
17 | O=C(Nc1c(F)cc(F)cc1OC1CCNCC1)c1ccnc2ccccc12 [CBK050277T] | 94.9 | –
18 | C/C=C/c1ccc(OCCCn2nnc3ccccc32)c(OC)c1 [CBK269271] | 86 | –
19 | COc1ccc(CN2C(=O)CC3(C2=O)C(=O)N(C)c2ccccc23)cc1OC (stereo not shown) [CBK075450] | 91.8 | –
20 | O=C(O)Cc1ccc(OCC(=O)NCc2ccc(Cl)cc2Cl)cc1 [CBK296628] | 109 | –
21 | CC(=O)Nc1cccc(NC(=O)c2ccc(CN3CCc4ccccc4C3)cc2)c1 [CBK269534] | 92.2 | –
22 | Cc1cc(NS(=O)(=O)c2ccc(Nc3nc(-c4cccs4)cs3)cc2)no1 [CBK262504] | 101 | –

Row | SMILES | viability at 28.5 h, 10 µM [%] | viability at 28.5 h, 10 µM (bulk resorufin, single well) [%]
23 | COCCOc1ccc(-c2noc([C@@H]3CCCN3)n2)cn1 [CBK288883] | 97.4 | –
24 | O=C(O)CCC(=O)N1CCN(S(=O)(=O)c2ccc(F)cc2)CC1 [CBK286956] | 93.2 | –
25 | Cn1c(=O)n(CC(=O)OCc2ccccc2)c2cccnc21 [CBK284019] | 91.1 | –
26 | O=C(Nc1n[nH]c2ccccc12)c1ccccc1 [CBK017993] | 90.1 | –
27 | CCc1nn(C)cc1CN1CCOC(c2nc(C(C)(C)C)cs2)C1 (stereo not shown) [CBK304513] | 104 | –
28 | COCCn1nnnc1C(c1cc2cc(C)ccc2[nH]c1=O)N1CCN(C(=O)c2ccco2)CC1 (stereo not shown) [CBK111562] | 80.3 | –
29 | CCOCCCNC(=O)c1ccc(-c2cc(Oc3ccc(OC)cc3)ncn2)cc1 [CBK291209] | 100 | –
30 | Cc1nc(C2CCCN(C(=O)c3ccncc3)C2)c2sccn12 (stereo not shown) [CBK285199] | 90.8 | –
31 | CC(C)C(=O)N1CCC(c2nc3ccc(F)cc3cc2N)CC1 [CBK284656] | 81.5 | –
32 | O=C(c1ccccc1F)N1CCC(O)(c2ccc(F)cc2)CC1 [CBK281943] | 80.9 | –
33 | CCc1ccc(CN2CCC(Oc3ccccc3F)(C(=O)O)CC2)nc1 [CBK307528] | 93.1 | –
34 | COc1ccc(CC(=O)N2CCCC2c2nnc3ccccn23)cc1 (stereo not shown) [CBK304719] | 117 | –
35 | CN(C)CCN(Cc1ccccc1)Cc1ccc([N+](=O)[O-])cc1 [CBK261929] | 87.8 | –
36 | Nc1cccc(Oc2ccc3c(c2)C(=O)N(CCC(=O)O)C3=O)c1 [CBK287186] | 94.1 | –
37 | CCN(CC)CCCNc1nccc(-c2cn(C)nc2C)n1 [CBK306654] | 97.4 | –
38 | O=C(CSc1n[nH]c(=S)s1)NCCc1ccccc1 [CBK023445] | 99.2 | –
39 | NS(=O)(=O)c1ccc(-c2ccc(/C=C3\C(=O)NC(=O)N(c4ccc(Br)cc4)C3=O)o2)cc1 [CBK263423] | – | 93.2
40 | COCOc1ccc(-c2nc(-c3ccco3)cnc2N)cc1 [CBK064108] | 82.9 | –
41 | O=C(NCCc1c[nH]c2ccc(F)cc12)Nc1ccccc1 [CBK269964] | 107 | –
42 | CCc1c(C)nc2ccccc2c1SCCC(=O)O [CBK116382C] | 118 | –
43 | COc1ccc(CCN2CN=C(SCc3ccc(Cl)cc3)NC2)cc1OC [CBK074665C] | 95.3 | –
44 | COC(=O)c1cccc(OCCn2c(=O)c(C#N)cn(C3CC3)c2=O)c1 [CBK305990] | 98.6 | –

Row | SMILES | viability at 28.5 h, 10 µM [%] | viability at 28.5 h, 10 µM (bulk resorufin, single well) [%]
45 | Brc1ccc(OCc2ccccc2)c(CNCCN2CCOCC2)c1 [CBK278171C] | 97 | –
46 | COc1ccccc1NC(=N)Nc1nc(CSc2nc3ccccc3s2)cc(=O)[nH]1 [CBK269046] | 86 | –
47 | Cc1cc(C)c(NC(=O)CSc2nnc(-c3cccnc3)s2)c([N+](=O)[O-])c1 [CBK268929] | 102 | –
48 | Nc1ncc(-c2cc3ccccc3s2)nc1-c1ccc(CCC(=O)O)cc1 [CBK064134] | 98.1 | –
49 | CCOc1cc(/C=N\NC(=O)CNc2ccccc2C)cc(Br)c1O [CBK262151] | 86.5 | –
50 | CN(C)CCCNC(=S)Nc1ccc(Cl)cc1Cl [CBK264183] | 92.5 | –
51 | COc1ccc(S(=O)(=O)NCCN2CCOCC2)cc1Br [CBK269838] | 91.4 | –
52 | C=CCN1C(=O)CC2(C1=O)C(=O)N(Cc1nc(-c3ccc(Cl)cc3)no1)c1ccc(OC)cc12 (stereo not shown) [CBK075692] | 97.1 | –
53 | CC(CCc1ccc(O)cc1)NC1CCCC1 (stereo not shown) [CBK033987] | 102 | –
54 | CCOC1(c2ccccc2)N=C2C(Cl)=CC(C(F)(F)F)=CN2N=C1c1ccccc1 (stereo not shown) [CBK020634] | 91.4 | –
55 | O=C(O)CS(=O)(=O)c1ccccc1C(=O)O [CBK261083] | 98.9 | –
56 | Cc1cc(OC(F)(F)F)ccc1NS(=O)(=O)c1ccc(-c2ccon2)s1 [CBK062361] | 86.7 | –
57 | OC(COc1cccc2c1CCCC2)CN1CCC(O)(c2ccc(Cl)c(C(F)(F)F)c2)CC1 (stereo not shown) [CBK003581] | 102 | –
58 | CN(C)CC(=O)N/N=C/c1ccsc1 [CBK008256C] | 110 | –
59 | O=C(c1ccc(-n2cccn2)nc1)N1CCN(c2ccccc2O)CC1 [CBK297794] | 83.8 | –
60 | CCCCOC(=O)CCNc1n[nH]c(=O)[nH]c1=O [CBK027838] | 97.3 | –
61 | O=C1NC2(CCOCC2)C(=O)N1Cc1ncc(-c2cccs2)o1 [CBK304187] | 92 | –
62 | FC(F)(F)c1ccnc(Sc2cccc(Cl)c2)n1 [CBK115247] | 98.5 | –
63 | Cc1cc(/C=C2/C(=N)N3N=C(Cc4ccccc4)SC3=NC2=O)c(C)n1-c1ccccc1 [CBK264318] | 100 | –
64 | O=C(CN1CCCC2(CCN(C(=O)Cc3c[nH]c4ccccc34)C2)C1)Nc1ccc(F)c(Cl)c1 (stereo not shown) [CBK132047] | 108 | –
65 | CS(=O)(=O)c1ccc(CNC(=O)c2ccccc2Nc2cccc(C(F)(F)F)c2)cc1 [CBK149580] | 92 | –
66 | CCOc1cc(C(c2c[nH]c3ccccc23)c2c[nH]c3ccccc23)ccc1OCC(=O)O [CBK264450] | 97.1 | –

Row | SMILES | viability at 28.5 h, 10 µM [%] | viability at 28.5 h, 10 µM (bulk resorufin, single well) [%]
67 | O=S(=O)(NCCn1cccc1)c1ccc2ccccc2c1 [CBK270211] | 90.4 | –
68 | c1ccc2cc(-c3cnc(N4CCOCC4)c4nccn34)ccc2c1 [CBK091307] | 94.1 | –
69 | Cc1nc(C)c(C(=O)N2CCCC(c3cc4cccnc4[nH]3)C2)s1 (stereo not shown) [CBK284995] | 97.4 | –
70 | CC(=O)Nc1ccc(CNc2ncccc2OC(F)F)cc1 [CBK306016] | 95 | –
71 | O=C(NCCn1nc(-c2ccco2)ccc1=O)c1ccccc1F [CBK283742] | 92.5 | –
72 | COc1ccc(OC(=O)c2ccc3ncccc3c2)cc1 [CBK083572] | 96.3 | –
73 | O=C(CCNS(=O)(=O)c1ccccc1Cl)N1CCN(C(=O)C2CC2)CC1 [CBK306025] | 113 | –
74 | O=C(c1cc(F)cc(F)c1)N1CCn2c(nnc2C2CC2)C1 [CBK283772] | 95.9 | –
75 | COc1ccc(C)cc1S(=O)(=O)n1ccc2c(CNC3CCN(C)CC3)cccc21 [CBK113308T] | 90.6 | –
76 | O=S(=O)(c1ccccc1)c1nc(-c2ccco2)oc1NCCCn1ccnc1 [CBK267670] | 87.1 | –
77 | Cc1cc(C)n(CCC(=O)N2CCCC2c2nc3ccccc3[nH]2)n1 (stereo not shown) [CBK283664] | 106 | –
78 | N#Cc1ccc(N2C(=O)c3ccccc3S2(=O)=O)cc1 [CBK113195] | 113 | –
79 | Cn1cc(CN2CCC(CNc3ccccn3)C2)cn1 (stereo not shown) [CBK304705] | 101 | –
80 | CCCC(=O)Nc1ccc(OCc2cnccn2)c(C(C)=O)c1 [CBK304766] | 102 | –
81 | O=S(=O)(Nc1ccc(N2CCOCC2)cc1)c1cccc(OC(F)(F)F)c1 [CBK296759] | 95.1 | –
82 | O=C(c1ccc(F)cc1)C1CCN(CCC(c2ccccc2)c2ccccc2)CC1 [CBK149138] | 92.3 | –
83 | COc1ccc(C(=O)Nc2nnc(C3=COCCO3)o2)cc1 [CBK287409] | 93.9 | –
84 | CN1C(=O)C2(CC(=O)N(Cc3ccccc3)C2=O)c2cc(F)ccc21 (stereo not shown) [CBK075268] | 98.6 | –
85 | CS(=O)(=O)c1ccc(-c2cccc(COC3CCN(C(=O)Cc4ccc(C#N)cc4)CC3)c2)cc1 [CBK149513] | 96.3 | –
86 | c1ccc(Oc2ccc(Nc3ccc(-c4cccc5cccnc45)cn3)cc2)cc1 [CBK037643] | 105 | –
87 | O=C(/C=C/c1ccc2c(c1)OCO2)N1CCN(c2ncccn2)CC1 [CBK144501] | 89.5 | –
88 | Cc1[nH]c2ccccc2c1/C=N/NC(=O)C1COc2ccccc2O1 (stereo not shown) [CBK261482] | 90.9 | –
